Reference: patent US12012413B2, “Methods of treating painful diabetic peripheral neuropathy” (Tenacia Biotechnology (Hong Kong) Co., Limited, priority 2019, dated 2024)
In brackets after ≈: the same amount, converted by molar mass. Where two headings read alike, the source gives them in different places.

Tests used:
Type in all cases: physicochemical
[1] = Dynamic vapor sorption (DVS) profile
Source text: FIG. 4 depicts the dynamic sorption vapor (DVS) profile of crystalline, monohydrate Form MH of NYX-2925. […] This is a fully reversible process and the sample loses this water when decreasing the relative humidity with a negligible hysteresis. At low relative humidity there is the release and uptake of about 5.5 wt. % in the range of about 0% to about 15% relative humidity with about 10% relative humidity hysteresis. The monohydrate Form MH of NYX-2925 retains about 5.7 weight % water content, corresponding to the stoichiometric water content of the, monohydrate, over the range of about 10% to about 80% relative humidity with less than 0.5 wt. % change. There is minimal water uptake above 80% relative humidity and about 1 weight % gain in the 90% to 95% relative humidity range.

[2] = Solubility and stability of saturated solutions in pH 2-8 buffers at 25° C. (HPLC); conditions: for solubility at 1 day / solubility at 4 days / solubility at 7 days: ca. 25° C., read-out: solubility in an aqueous solvent; for solubility at 1 day: after about 1 day; for solubility at 4 days: after about 4 days; for solubility at 7 days: after about 7 days
Description: Crystalline, monohydrate Form MH of (2S,3R)-3-hydroxy-2-((R)-5-isobutyryl-1-oxo-2,5-diazaspiro[3.4]octan-2-yl)butanamide was prepared as follows. Saturated solutions of 3-hydroxy-2-(5-isobutyryl-1-oxo-2,5-diazaspiro[3.4]octan-2-yl)butanamide were prepared in pH 2, pH 3, pH 5, pH 7, and pH 8 buffers and were stirred at 25° C. Aliquots were taken after 1 day, 4 days, and 7 days and centrifuged at 12,500 rpm for 15 minutes. The supernatant was analyzed for sample concentration by HPLC, and the residual solids were analyzed by XRPD after 1 day, 4 days, and 7 days.

[3] = Solid form conversion / physical stability (XRPD); conditions: ambient conditions of temperature and humidity; versus anhydrous Forms A, B, and C
Description: X-ray powder diffraction (XRPD) analysis was carried out on a Stoe Stadi P with Mythen1K detector; Cu-Kα1 radiation; 40 kV and 40 mA tube power; curved Ge monochromator; 0.02° 2θ step size, 12 s step time, 1.5-50.5° 2θ scanning range; detector mode: step scan; 1° 2θ detector step. The sample (about 20 mg) was placed between two acetate foils and clamped in a Stoe transmission sample holder. The sample holder was rotated during the measurement.
X-ray powder diffraction (XRPD) analysis was also carried out on a on a Bruker D8 Advance; Cu-Kα radiation; standard measurement conditions: Bragg-Brentano reflection geometry; 40 kV and 40 mA tube power; LynxEye detector; 0.02° 2θ step size, 37 s step time, 2.5-50.5° 2θ scanning range (about 10 min measurement time. The sample was spread on a silicon single crystal substrate without cavity and flattened to fit to the 0.1 mm depth of the sample holder.
Crystalline, anhydrous Form C material of 3-hydroxy-2-(5-isobutyryl-1-oxo-2,5-diazaspiro[3.4]octan-2-yl)butanamide is not stable in comparison to anhydrous Form A or anhydrous Form B under ambient conditions of temperature and humidity. […] In turn, anhydrous Form A and anhydrous Form B each convert to monohydrate Form MH under the conditions described above.

[4] = Approximate solubility by stepwise dilution in solvents and solvent mixtures; conditions: 22 °C, about 22° C., read-out: Solubility S
Description: Approximate solubilities were determined by a stepwise dilution of a suspension of about 10 mg of substance in 0.05 mL of solvent. If the substance was not dissolved by addition of a total of at least 10 ml solvent, the solubility was indicated as <1 mg/mL. For all experiments, analytical grade solvents were used.
The approximate solubility of crystalline, monohydrate Form MH of NYX-2925 across a range of solvents and solvent mixtures (expressed in volume ratios measured at about 22° C.) is provided in Table 8, below.

[5] = Stability of monohydrate drug substance and oral capsules on storage
Source text: NYX-2925 monohydrate drug product was formulated with the pharmaceutically acceptable excipients: microcrystalline cellulose, starch, and magnesium stearate.

[6] = aqueous buffer, pH 2, aqueous buffer, thermodynamic from solid, pH of about 2
[7] = aqueous buffer, pH 3, aqueous buffer, thermodynamic from solid, pH of about 3
[8] = aqueous buffer, pH 5, aqueous buffer, thermodynamic from solid, pH of about 5
[9] = aqueous buffer, pH 7, aqueous buffer, thermodynamic from solid, pH of about 7
[10] = aqueous buffer, pH 8, aqueous buffer, thermodynamic from solid, pH of about 8

- DVS weight gain ([1]; 90% to 95% relative humidity range): about 1 weight %
- DVS release and uptake of water (reversible weight loss) ([1]; about 0% to about 15% relative humidity, about 10% RH hysteresis): about 5.5 wt. %
- DVS water content retained ([1]; about 10% to about 80% relative humidity): about 5.7 weight %
- DVS continuous reversible uptake of water ([1]; from about 50% to about 95% relative humidity, mainly above 90%): about 1.5 wt. %
- DVS change in water content ([1]; over about 10% to about 80% relative humidity): less than 0.5 wt. %
- solubility at 1 day [2, 6]: ~54.1 mg/mL (≈ 182 mM)
- solubility at 4 days [2, 6]: ~53.5 mg/mL (≈ 180 mM)
- solubility at 7 days [2, 6]: ~53.5 mg/mL (≈ 180 mM)
- solubility at 1 day [2, 7]: ~54.2 mg/mL (≈ 182 mM)
- solubility at 4 days [2, 7]: ~53.2 mg/mL (≈ 179 mM)
- solubility at 7 days [2, 7]: ~52.4 mg/mL (≈ 176 mM)
- solubility at 1 day [2, 8]: ~52.5 mg/mL (≈ 177 mM)
- solubility at 4 days [2, 8]: ~53.2 mg/mL (≈ 179 mM)
- solubility at 7 days [2, 8]: ~52.4 mg/mL (≈ 176 mM)
- solubility at 1 day [2, 9]: ~52.6 mg/mL (≈ 177 mM)
- solubility at 4 days [2, 9]: ~53 mg/mL (≈ 178 mM)
- solubility at 7 days [2, 9]: ~52.3 mg/mL (≈ 176 mM)
- solubility at 1 day [2, 10]: ~52.7 mg/mL (≈ 177 mM)
- solubility at 4 days [2, 10]: ~51.6 mg/mL (≈ 174 mM)
- solubility at 7 days [2, 10]: ~52.6 mg/mL (≈ 177 mM)
- solubility thermodynamic at 7 days ([2]; pH 2, pH 3, pH 5, pH 7 and pH 8 buffers, aqueous buffer, thermodynamic from solid, pH ranges of 2-8, 25° C., after 7 days, read-out: saturated concentration in buffers): ~50 mg/mL (≈ 168 mM)
- stability in saturated buffer solutions (HPLC analysis) ([2]; pH ranges of 2-8, 25° C., after 7 days): stable
- relative stability of crystalline forms [3]: more stable
- solubility ([4]; 1,4-dioxane, organic solvent or mixture, thermodynamic from solid, 1,4-dioxane): 28 to 31 mg/mL (≈ 94.2 to 104 mM)
- solubility ([4]; 1/1 dichloromethane/methanol (v/v), organic solvent or mixture, thermodynamic from solid, 1/1 dichloromethane/methanol (volume ratio)): > 200 mg/mL
- solubility ([4]; 1/1 ethanol/water (v/v), aqueous with cosolvent or surfactant or cyclodextrin, thermodynamic from solid, 1/1 ethanol/water (volume ratio)): 69 to 103 mg/mL
- solubility ([4]; 1/1 isopropanol/water (v/v), aqueous with cosolvent or surfactant or cyclodextrin, thermodynamic from solid, 1/1 isopropanol/water (volume ratio)): 71 to 107 mg/mL
- solubility ([4]; 1/1 methanol/water (v/v), aqueous with cosolvent or surfactant or cyclodextrin, thermodynamic from solid, 1/1 methanol/water (volume ratio)): > 200 mg/mL
- solubility ([4]; 10/1 ethyl acetate/ethanol (v/v), organic solvent or mixture, thermodynamic from solid, 10/1 ethyl acetate/ethanol (volume ratio)): 32 to 39 mg/mL
- solubility ([4]; 10/1 isopropanol/water (v/v), organic solvent or mixture, thermodynamic from solid, 10/1 isopropanol/water (volume ratio)): 36 to 41 mg/mL
- solubility ([4]; acetone, organic solvent or mixture, thermodynamic from solid, acetone): 57 to 76 mg/mL (≈ 192 to 256 mM)
- solubility ([4]; acetonitrile, organic solvent or mixture, thermodynamic from solid, acetonitrile): 118 to 230 mg/mL (≈ 397 to 773 mM)
- solubility ([4]; aniline, organic solvent or mixture, thermodynamic from solid, aniline): > 200 mg/mL
- solubility ([4]; anisole, organic solvent or mixture, thermodynamic from solid, anisole): ~3 mg/mL (≈ 10.1 mM)
- solubility ([4]; cyclohexane, organic solvent or mixture, thermodynamic from solid, cyclohexane): ~1 mg/mL (≈ 3.36 mM)
- solubility ([4]; dichloromethane, organic solvent or mixture, thermodynamic from solid, dichloromethane): 55 to 73 mg/mL (≈ 185 to 245 mM)
- solubility ([4]; diisopropyl ether, organic solvent or mixture, thermodynamic from solid, diisopropyl ether): < 1 mg/mL
- solubility ([4]; dimethyl sulfoxide, organic solvent or mixture, thermodynamic from solid, dimethyl sulfoxide): > 200 mg/mL
- solubility ([4]; dimethylformamide, organic solvent or mixture, thermodynamic from solid, dimethylformamide): > 200 mg/mL
- solubility ([4]; ethanol, organic solvent or mixture, thermodynamic from solid, ethanol): > 200 mg/mL
- solubility ([4]; ethyl acetate saturated with water, organic solvent or mixture, thermodynamic from solid, ethyl acetate saturated with water): 6 to 8 mg/mL (≈ 20.2 to 26.9 mM)
- solubility ([4]; ethyl acetate, organic solvent or mixture, thermodynamic from solid, ethyl acetate): 13 to 15 mg/mL (≈ 43.7 to 50.4 mM)
- solubility ([4]; heptane, organic solvent or mixture, thermodynamic from solid, heptane): < 1 mg/mL
- solubility ([4]; isopropanol, organic solvent or mixture, thermodynamic from solid, isopropanol): 45 to 60 mg/mL (≈ 151 to 202 mM)
- solubility ([4]; isopropyl acetate, organic solvent or mixture, thermodynamic from solid, isopropyl acetate): 5 to 6 mg/mL (≈ 16.8 to 20.2 mM)
- solubility ([4]; methanol, organic solvent or mixture, thermodynamic from solid, methanol): > 200 mg/mL
- solubility ([4]; methyl ethyl ketone, organic solvent or mixture, thermodynamic from solid, methyl ethyl ketone): 32 to 38 mg/mL (≈ 108 to 128 mM)
- solubility ([4]; tert-butyl methyl ether saturated with water, organic solvent or mixture, thermodynamic from solid, tert-butyl methyl ether saturated with water): < 1 mg/mL
- solubility ([4]; tert-butyl methyl ether, organic solvent or mixture, thermodynamic from solid, tert-butyl methyl ether): < 1 mg/mL
- solubility ([4]; tetrahydrofuran, organic solvent or mixture, thermodynamic from solid, tetrahydrofuran): 31 to 36 mg/mL (≈ 104 to 121 mM)
- solubility ([4]; toluene, organic solvent or mixture, thermodynamic from solid, toluene): < 1 mg/mL
- solubility ([4]; triethylamine, organic solvent or mixture, thermodynamic from solid, triethylamine): < 1 mg/mL
- solubility ([4]; water, water, thermodynamic from solid, water): 26 to 30 mg/mL (≈ 87.4 to 101 mM)
- changes in impurity profile or other quality attributes (appearance, assay, water content, microbial examination, XRPD) ([5]; 6 months at 40° C./75% relative humidity): no significant changes
- changes in impurity profile or other quality attributes (appearance, assay, water content, microbial examination, XRPD) ([5]; 12 months at 25° C./60% relative humidity): no significant changes
SMILES: CC(C)C(=O)N1CCC[C@]12CN([C@H](C(N)=O)[C@@H](C)O)C2=O [Form MH, (2S,3R)-3-hydroxy-2-((R)-5-isobutyryl-1-oxo-2,5-diazaspiro[3.4]octan-2-yl)butanamide]
